Test results as given in US8871767B2, “2-arylimidazo[1,2-B]pyridazine, 2-phenylimidazo[1,2-A]pyridine, and 2-phenylimidazo[1,2-A]pyrazine derivatives” (Hengrui (USA) Ltd., priority 2010, dated 2014).
Like-named read-outs stand apart in the source and are kept apart here.

What was measured:
[1] = test system: Hedgehog pathway activation on 10T1/2/Smo#3 cells (C3H10T1/2 cells transfected with human Smoothened receptor); test: Hedgehog pathway activation on 10T1/2/Smo#3 cells measured by ALP activity; type: cell-based; conditions: Mus musculus, C3H 10T1/2, 10T1/2/Smo#3 cells
Procedure, shortened: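 C3H10T1/2 cells stably expressing human Smoothened were activated with hShh-conditioned medium (10-20%) or 500 nM SAG, with test compounds present. Pathway block read as inhibited ALP activity (4-methylumbelliferyl phosphate fluorescence); viability checked by CellTiter-Blue. IC50 values reported.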

[2] = test system: Hedgehog pathway activation (GLi-luciferase reporter) in Shh Light II reporter cells; test: Hedgehog pathway activation on Shh Light II reporter cells measured by luciferase activity; type: cell-based; conditions: Mus musculus, Shh Light II
Procedure, shortened: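 Shh Light II reporter cells carrying a hedgehog-responsive GLi-luciferase reporter were stimulated either with 500 nM SAG, a direct Smoothened agonist, or with conditioned media containing human Sonic Hedgehog (hShh). Test compounds were evaluated for blocking this pathway activation, quantified by luciferase activity. Cell viability was monitored in parallel with the Celltiter-Blue® assay.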

[3] = measured by ALP activity, read-out: ALP (IC50, inhibition of Hedgehog pathway activation)
[4] = hShh activation, read-out: Shh (IC50, inhibition of Hedgehog pathway activation)
[5] = hShh activation, ALP activity, read-out: 10T1/2/Smo#3 ALP activity (hShh Activation)
[6] = SAG activation (500 nM SAG), read-out: Shh Light II luciferase activity (SAG activation)
[7] = hShh activation, read-out: Shh Light II luciferase activity (hShh activation)

Row | IC50 [1, 3] [nM] | IC50 [2, 4] [nM] | IC50 [1, 5] [nM] | IC50 [2, 6] [nM] | IC50 [2, 7] [nM] | Structure (SMILES)
1 | 400 | 352 |  |  |  | CC1CCCCC1Oc1ccc2nc(-c3ccc(C(F)(F)F)c(NC(=O)C(C)(C)C)c3)cn2n1 (centres unmarked) [Example 307, N-(5-(6-(2-methylcyclohexyloxy)imidazo[1,2-b]pyridazin-2-yl)-2-(trifluoromethyl)phenyl)pivalamide]
2 | 141 | 193 |  |  |  | Cc1ccncc1-c1ccc2nc(-c3ccc(C(F)(F)F)c(NC(=O)C(C)(C)C)c3)cn2n1 [Example 383, N-(5-(6-(4-methylpyridin-3-yl)imidazo[1,2-b]pyridazin-2-yl)-2-(trifluoromethyl)phenyl)pivalamide]
3 | 80 | 84 |  |  |  | Cc1ccc(-c2cn3nc(-c4ccccc4C(F)(F)F)ccc3n2)cc1NC(=O)C(C)(C)C [Example 259, N-(2-methyl-5-(6-(2-(trifluoromethyl)phenyl)imidazo[1,2-b]pyridazin-2-yl)phenyl)pivalamide]
4 | 5230 | 2470 |  |  |  | Cc1ccc(-c2cn3ncccc3n2)cc1NC(=O)CC(C)(C)C [Example 108, N-(5-(imidazo[1,2-b]pyridazin-2-yl)-2-methylphenyl)-3,3-dimethylbutanamide]
5 | 8280 | 8570 |  |  |  | CCOc1ccc2nc(-c3ccc(C(F)(F)F)c(S(=O)(=O)NC(C)(C)C)c3)cn2n1 [Example 216, N-tert-butyl-5-(6-ethoxyimidazo[1,2-b]pyridazin-2-yl)-2-(trifluoromethyl)benzenesulfonamide]
6 | 205 | 311 |  |  |  | Cc1ccc(-c2cn3nc(-c4cccnc4C(F)(F)F)ccc3n2)cc1-c1cscn1 [compound 512]
7 | 65 | 48 | < 300 | 3000 to 30000 | < 300 | CC(C)(C)C(=O)Nc1cc(-c2cn3nc(-c4ccccc4C(F)(F)F)ccc3n2)ccc1C#N [Example 225, N-(2-cyano-5-(6-(2-(trifluoromethyl)phenyl)imidazo[1,2-b]pyridazin-2-yl)phenyl)pivalamide]
8 | 995 | 623 | 300 to 3000 | 300 to 3000 | 300 to 3000 | CNc1ccc2nc(-c3ccc(C(F)(F)F)c(NC(=O)C(C)(C)C)c3)cn2n1 [Example 137, N-(5-(6-(methylamino)imidazo[1,2-b]pyridazin-2-yl)-2-(trifluoromethyl)phenyl)pivalamide]
9 | 186 | 192 |  |  |  | CCc1ccc(-c2cn3nc(-c4cccnc4C(F)(F)F)ccc3n2)cc1NC(=O)N(CC)CC [Example 693, 1,1-diethyl-3-(2-ethyl-5-(6-(2-(trifluoromethyl)pyridin-3-yl)imidazo[1,2-b]pyridazin-2-yl)phenyl)urea]
10 | 105 | 24 |  |  |  | CCC(C)(C)C(=O)Nc1cc(-c2cn3nc(-c4cccnc4C(F)(F)F)ccc3n2)ccc1Cl [Example 664, N-(2-chloro-5-(6-(2-(trifluoromethyl)pyridin-3-yl)imidazo[1,2-b]pyridazin-2-yl)phenyl)-2,2-dimethylbutanamide]
11 | 248 | 48 |  |  |  | Cc1ccc(-c2cn3nc(NCc4ccc(C(=O)Nc5ccccc5N)cc4)ccc3n2)cc1NC(=O)C(C)(C)C [compound 599]
12 | 70 | 23 | < 300 | < 300 | < 300 | CCN(CC)C(=O)Nc1cc(-c2cn3nc(-c4cccnc4C(F)(F)F)ccc3n2)ccc1Cl [Example 655, 3-(2-chloro-5-(6-(2-(trifluoromethyl)pyridin-3-yl)imidazo[1,2-b]pyridazin-2-yl)phenyl)-1,1-diethylurea]
13 | 607 | 468 |  |  |  | CC(C)(C)OC(=O)n1cccc1-c1ccc2nc(-c3ccc(C(F)(F)F)c(NC(=O)C(C)(C)C)c3)cn2n1 [Example 178, tert-butyl 2-(2-(3-pivalamido-4-(trifluoromethyl)phenyl)imidazo[1,2-b]pyridazin-6-yl)-1H-pyrrole-1-carboxylate]
14 | > 10000 | 1490 |  |  |  | COc1ccc2nc(-c3cc(NC(=O)C(C)(C)C)c(C)cc3Cl)cn2n1 [Example 132, N-(4-chloro-5-(6-methoxyimidazo[1,2-b]pyridazin-2-yl)-2-methylphenyl)pivalamide]
15 | 246 | 341 |  |  |  | COc1cccc(-c2ccc3nc(-c4ccc(C(F)(F)F)c(NC(=O)C(C)(C)C)c4)cn3n2)c1F [Example 206, N-(5-(6-(2-fluoro-3-methoxyphenyl)imidazo[1,2-b]pyridazin-2-yl)-2-(trifluoromethyl)phenyl)pivalamide]
16 | 730 | 240 |  |  |  | CC(C)(C)C(=O)Nc1cc(-c2cn3nc(N4CCN(C(=N)N)CC4)ccc3n2)ccc1C(F)(F)F [compound 570]

Row | IC50 [1, 3] [nM] | IC50 [2, 4] [nM] | IC50 [1, 5] [nM] | IC50 [2, 6] [nM] | IC50 [2, 7] [nM] | Structure (SMILES)
17 | 951 | 416 |  |  |  | CCc1ccc(-c2cn3nc(-c4cccnc4C(F)(F)F)ccc3n2)cc1NC(=O)CC(F)(F)F [Example 692, N-(2-ethyl-5-(6-(2-(trifluoromethyl)pyridin-3-yl)imidazo[1,2-b]pyridazin-2-yl)phenyl)-3,3,3-trifluoropropanamide]
18 | 665 | 225 | 300 to 3000 | 300 to 3000 | < 300 | CCOC(=O)CCCCCOc1ccc(-c2ccc3nc(-c4ccc(C)c(NC(=O)C(C)(C)C)c4)cn3n2)c(C(F)(F)F)c1 [Example 412, ethyl 6-(4-(2-(4-methyl-3-pivalamidophenyl)imidazo[1,2-b]pyridazin-6-yl)-3-(trifluoromethyl)phenoxy)hexanoate]
19 | 20 | 20 |  |  |  | Cc1ccc(-c2cn3nc(-c4cccnc4C(F)(F)F)ccc3n2)cc1NC(=O)C(C)(C)C(F)(F)F [Example 638, 3,3,3-trifluoro-2,2-dimethyl-N-(2-methyl-5-(6-(2-(trifluoromethyl)pyridin-3-yl)imidazo[1,2-b]pyridazin-2-yl)phenyl)propanamide]
20 | 61 | 9 |  |  |  | Cc1ccc(-c2cn3nc(-c4cc(C#N)ccc4Cl)ccc3n2)cc1NC(=O)C(C)(C)C [compound 565]
21 | 533 | 929 |  |  |  | COc1ncc(-c2ccc3nc(-c4ccc(C(F)(F)F)c(NC(=O)C(C)(C)C)c4)cn3n2)cn1 [Example 373, N-(5-(6-(2-methoxypyrimidin-5-yl)imidazo[1,2-b]pyridazin-2-yl)-2-(trifluoromethyl)phenyl)pivalamide]
22 | 4760 | 1580 |  |  |  | CCOc1ccc2nc(-c3ccc(C(F)(F)F)c(NC(=O)c4ccccc4F)c3)cn2n1 [Example 192, N-(5-(6-ethoxyimidazo[1,2-b]pyridazin-2-yl)-2-(trifluoromethyl)phenyl)-2-fluorobenzamide]
23 | 451 | 186 |  |  |  | CC(C)(C)C(=O)Nc1cc(-c2cn3nc(C4CC4)ccc3n2)ccc1C(F)(F)F [Example 139, N-(5-(6-cyclopropylimidazo[1,2-b]pyridazin-2-yl)-2-(trifluoromethyl)phenyl)pivalamide]
24 | 251 | 96 |  |  |  | CCOC(=O)Nc1cc(-c2cn3nc(-c4cccnc4C(F)(F)F)ccc3n2)c(F)cc1Cl [Example 657, ethyl 2-chloro-4-fluoro-5-(6-(2-(trifluoromethyl)pyridin-3-yl)imidazo[1,2-b]pyridazin-2-yl)phenylcarbamate]
25 | 117 | 38 |  |  |  | O=C(Nc1cc(-c2cn3nc(-c4cccnc4C(F)(F)F)ccc3n2)ccc1Cl)N1CCCC1 [Example 656, N-(2-chloro-5-(6-(2-(trifluoromethyl)pyridin-3-yl)imidazo[1,2-b]pyridazin-2-yl)phenyl)pyrrolidine-1-carboxamide]
26 | 295 | 306 |  |  |  | CC(C)(C)C(=O)Nc1cc(-c2cn3nc(-c4ccc(O)cc4)ccc3n2)ccc1C(F)(F)F [Example 243, N-(5-(6-(4-hydroxyphenyl)imidazo[1,2-b]pyridazin-2-yl)-2-(trifluoromethyl)phenyl)pivalamide]
27 | 6960 | 1020 |  |  |  | CCOc1ccc2nc(-c3ccc(C(F)(F)F)c(C(=O)NC(C)(C)C)c3)cn2n1 [Example 211, N-tert-butyl-5-(6-ethoxyimidazo[2,1-f]pyridazin-2-yl)-2-(trifluoromethyl)benzamide]
28 | 756 | 376 |  |  |  | Cc1ccc(-c2cn3nc(-c4ccc(NC(=O)CCCCCCC(=O)NOC5CCCCO5)cc4)ccc3n2)cc1NC(=O)C(C)(C)C (centres unmarked) [compound 562]
29 | 462 | 224 |  |  |  | Cc1ccc(-c2cn3nc(N4CCC(C#N)CC4)ccc3n2)cc1NC(=O)C(C)(C)C [compound 544]
30 | 2550 | 559 |  |  |  | CC(C)OC(=O)Nc1cc(-c2cn3nc(-c4cccnc4C(F)(F)F)ccc3n2)ccc1F [Example 683, isopropyl 2-fluoro-5-(6-(2-(trifluoromethyl)pyridin-3-yl)imidazo[1,2-b]pyridazin-2-yl)phenylcarbamate]
31 | 1620 | 726 | 300 to 3000 | 3000 to 30000 | 300 to 3000 | CC(C)(C)C(=O)Nc1cc(-c2cn3nc(Oc4ccc(F)cc4)ccc3n2)ccc1C(F)(F)F [Example 196, N-(5-(6-(4-fluorophenoxy)imidazo[1,2-b]pyridazin-2-yl)-2-(trifluoromethyl)phenyl)pivalamide]
